Values of other authors as cited in US10945992B1, “Dosage forms of rofecoxib and related methods” (Tremeau Pharmaceuticals, Inc., priority 2019, dated 2021).

Assays:
[1] = cited from earlier work; for incidence of gastrointestinal (GI) ulcers visualized at endoscopy compared to certain non-selective NSAIDs: FDA 2005; for risk of serious adverse cardiovascular events compared to placebo: long-term controlled clinical trial / FDA 2005
patients with HA = settings: six weeks of Part 1; P<0.001; cited from earlier work

Structure (SMILES) | incidence of gastrointestinal (GI) ulcers visualized at endoscopy compared to certain non-selective NSAIDs [1] | risk of serious adverse cardiovascular events compared to placebo [1] | improvement on all endpoints versus placebo (patients with HA)
Cc1onc(-c2ccccc2)c1-c1ccc(S(N)(=O)=O)cc1 [valdecoxib] | reduction | increased risk | 
Cc1ccc(-c2cc(C(F)(F)F)nn2-c2ccc(S(N)(=O)=O)cc2)cc1 [celecoxib] | reduction | increased risk | 
Cc1ccc(-c2ncc(Cl)cc2-c2ccc(S(C)(=O)=O)cc2)cn1 [etoricoxib] |  |  | clinically and statistically significant improvement
